In ChEMBL document CHEMBL1799932, “Antimalarial pyrido[1,2-a]benzimidazoles” (J Med Chem, 2011):

Experiments:
Plasmodium berghei [1] = test: Antimalarial activity against GFP-transfected Plasmodium berghei strain ANKA infected in NMRI mouse assessed as reduction in parasitemia at 25 mg/kg, po administered as single dose measured on day 4 by FACS analysis; format: functional; design: scale not given: the % may be the effect or the level left
[2] = Metabolic stability in human liver microsomes assessed as degradation half life after 60 mins by LC-MS analysis; format: ADME, Microsome
Rattus norvegicus [3] = test: AUC (0 to tlast) in fasted Sprague-Dawley rat assessed as 1-(2-Diethylaminoethylamino)-3-[4-(trifluoromethyl)phenyl]-pyrido[1,2-a]benzimidazole-4-carbonitrile at 5 mg/kg, iv after 48 hrs by LC-MS analysis; format: ADME, organism-based, Plasma; design: time < 48 hr, dose 5 mg/kg, route intravenous; conditions: in vivo
Rattus norvegicus [4] = test: AUC (0 to tlast) in fasted Sprague-Dawley rat assessed as 1-(2-Ethylaminoethylamino)-3-[4-(trifluoromethyl)phenyl]- pyrido[1,2-a]benzimidazole-4-carbonitrile level at 20 mg/kg, po after 48 hrs by LC-MS analysis; format: ADME, organism-based, Plasma; design: time < 48 hr, dose 20 mg/kg, route oral; conditions: in vivo
[5] = Metabolic stability in rat liver microsomes assessed as intrinsic clearance per mg protein after 60 mins by LC-MS analysis; format: ADME, Microsome
Plasmodium berghei [6] = test: Antimalarial activity against GFP-transfected Plasmodium berghei strain ANKA infected in NMRI mouse assessed as reduction in parasitemia at 50 mg/kg, po administered as single dose measured on day 4 by FACS analysis; format: functional; design: scale not given: the % may be the effect or the level left
L6 = test: Cytotoxicity at rat L6 cells after 72 hrs by microplate alamar blue assay; format: cell-based; conditions: l6
Rattus norvegicus [7] = test: Drug excretion in fasted Sprague-Dawley rat urine assessed as 1-(2-Diethylaminoethylamino)-3-[4-(trifluoromethyl)phenyl]-pyrido[1,2-a]benzimidazole-4-carbonitrile at 5 mg/kg, iv after 48 hrs by LC-MS analysis; format: ADME, organism-based; design: dose 5 mg/kg, route intravenous; conditions: in vivo
Plasma = test: Plasma protein binding in mouse assessed as 1-(2-Diethylaminoethylamino)-3-[4-(trifluoromethyl)phenyl]-pyrido[1,2-a]benzimidazole-4-carbonitrile at 5 mg/kg, iv after 48 hrs by LC-MS analysis; format: ADME, organism-based; design: dose 5 mg/kg, route intravenous; conditions: in vivo
Plasmodium berghei [8] = test: Antimalarial activity against GFP-transfected Plasmodium berghei strain ANKA infected in NMRI mouse assessed as reduction in parasitemia at 25 mg/kg, po administered as single dose measured on day 5 by FACS analysis; format: functional; design: scale not given: the % may be the effect or the level left
Plasmodium berghei [9] = test: Antimalarial activity against GFP-transfected Plasmodium berghei strain ANKA infected in NMRI mouse assessed as increase in mean survival time at 50 mg/kg, po administered as single dose (reference value: 5 days )

For `CCN(CC)CCNc1cc(-c2ccc(C(F)(F)F)cc2)c(C#N)c2nc3ccccc3n12.Cl.Cl`, the Activity (Plasmodium berghei [1]) was 51.13%, the half-life [2] was 13.7 min and the AUClast (Rattus norvegicus [3]) was 304 µM·min. The AUClast (Rattus norvegicus [4]) was 1032 µM·min, the microsomal CLint [5] was 69.8 µL/min/mg and the Activity (Plasmodium berghei [6]) was 59.97%. For the same compound, the IC50 (L6) was 89.6 µM, the Activity (Rattus norvegicus [7]) was 0.39% and the PPB (Plasma) was 97.9%. For the same compound, the Activity (Plasmodium berghei [8]) was 70.33% and the MSD (Plasmodium berghei [9]) was 8 days.
